Values of other authors, collected in US20140228595A1, “PROCESSES FOR PRODUCING HEXANEDIOL (HDO), HEXAMETHYLENEDIAMINE (HMD), ADIPONITRILE (ADN), ADIPAMIDE (ADM) AND DERIVATIVES THEREOF” (BioAmber S.A.S., priority 2011, published 2014).

- pKa1 (Table 1, Run 1): 4.43
- pKa of the second acid group of AA (second acid group): 5.1
SMILES: O=C(O)CCCCC(=O)O [AA, adipic acid]
